{
  "source": "ChEMBL document CHEMBL5214922",
  "about": "“Melphalan: Recent insights on synthetic, analytical and medicinal aspects” (Eur J Med Chem, 2022)",
  "key": {"MCF7 [1]": {"test_system": "MCF7", "experiment": "Cytotoxicity against human MCF7 cells assessed as cell growth inhibition incubated for 48 hrs by AlamarBlue assay", "assay_type": "functional, cell-based", "details": "MCF7, 48 h"}, "[2]": {"experiment": "Cytotoxicity against CHO cells assessed as cell growth inhibition incubated for 48 hrs by AlamarBlue assay", "assay_type": "toxicity, cell-based, Cricetulus griseus", "details": "Chinese hamster"}, "[3]": {"experiment": "Biodistribution in mouse CCRF S-180 tumor cells xenografted in ICR mouse measured after 120 mins", "assay_type": "ADME, organism-based", "details": "read-out: Drug uptake"}, "[4]": {"experiment": "Retention time of the compound by HPLC analysis", "assay_type": "physicochemical"}, "K562": {"test_system": "K562", "experiment": "Cytotoxicity against human K562 cells assessed as cell growth inhibition incubated for 24 hrs by MTT assay", "assay_type": "functional, cell-based", "details": "K562, 24 h"}, "SK-OV-3": {"test_system": "SK-OV-3", "experiment": "Cytotoxicity against human SK-OV-3 cells assessed as inhibition of cell proliferation incubated for 24 hrs by MTT assay", "assay_type": "functional, cell-based", "details": "SK-OV-3, 24 h"}, "[5]": {"experiment": "Biodistribution in mouse CCRF S-180 tumor cells xenografted in ICR mouse measured after 240 mins", "assay_type": "ADME, organism-based", "details": "read-out: Drug uptake"}, "HT-29": {"test_system": "HT-29", "experiment": "Cytotoxicity against human HT-29 cells assessed as cell growth inhibition measured after 24 hrs by MTT assay", "assay_type": "functional, cell-based", "details": "HT-29, 24 h"}, "SAOS-2 [6]": {"test_system": "SAOS-2", "experiment": "Cytotoxicity against human SAOS-2 cells assessed as cell growth inhibition incubated for 72 hrs by resazurin reduction method", "assay_type": "functional, cell-based", "details": "SAOS-2, 72 h"}, "H-EMC-SS": {"test_system": "H-EMC-SS", "experiment": "Cytotoxicity against human H-EMC-SS cells assessed as cell growth inhibition incubated for 72 hrs by resazurin reduction method", "assay_type": "functional, cell-based"}, "MCF7 [7]": {"test_system": "MCF7", "experiment": "Cytotoxicity against human MCF7 cells assessed as cell growth inhibition incubated for 24 hrs by MTT assay", "assay_type": "functional, cell-based", "details": "MCF7, 24 h"}, "MDA-MB-231 [8]": {"test_system": "MDA-MB-231", "experiment": "Inhibition of DNA synthesis in human MDA-MB-231 cells at 15 uM incubated upto 72 hrs by [3H]thymidine incorporation assay relative to control", "assay_type": "functional"}, "MDA-MB-231 [9]": {"test_system": "MDA-MB-231", "experiment": "Cytotoxicity against human MDA-MB-231 cells assessed as reduction in cell viability at 15 uM incubated for 24 hrs by MTT assay relative to control", "assay_type": "functional"}, "U2OS": {"test_system": "U2OS", "experiment": "Cytotoxicity against human U2OS cells assessed as cell growth inhibition", "assay_type": "functional, cell-based"}, "MC3T3-E1": {"test_system": "MC3T3-E1", "experiment": "Cytotoxicity against mouse MC3T3-E1 cells assessed as cell growth inhibition", "assay_type": "functional, cell-based"}, "[10]": {"experiment": "Prodrug conversion assessed as drug excretion measured after 6 days by HPLC analysis", "assay_type": "ADME", "details": "144 h; time 6 day"}, "[11]": {"target": "72 kDa type IV collagenase (Homo sapiens, UniProt P08253)", "sequence (P08253 whole entry)": "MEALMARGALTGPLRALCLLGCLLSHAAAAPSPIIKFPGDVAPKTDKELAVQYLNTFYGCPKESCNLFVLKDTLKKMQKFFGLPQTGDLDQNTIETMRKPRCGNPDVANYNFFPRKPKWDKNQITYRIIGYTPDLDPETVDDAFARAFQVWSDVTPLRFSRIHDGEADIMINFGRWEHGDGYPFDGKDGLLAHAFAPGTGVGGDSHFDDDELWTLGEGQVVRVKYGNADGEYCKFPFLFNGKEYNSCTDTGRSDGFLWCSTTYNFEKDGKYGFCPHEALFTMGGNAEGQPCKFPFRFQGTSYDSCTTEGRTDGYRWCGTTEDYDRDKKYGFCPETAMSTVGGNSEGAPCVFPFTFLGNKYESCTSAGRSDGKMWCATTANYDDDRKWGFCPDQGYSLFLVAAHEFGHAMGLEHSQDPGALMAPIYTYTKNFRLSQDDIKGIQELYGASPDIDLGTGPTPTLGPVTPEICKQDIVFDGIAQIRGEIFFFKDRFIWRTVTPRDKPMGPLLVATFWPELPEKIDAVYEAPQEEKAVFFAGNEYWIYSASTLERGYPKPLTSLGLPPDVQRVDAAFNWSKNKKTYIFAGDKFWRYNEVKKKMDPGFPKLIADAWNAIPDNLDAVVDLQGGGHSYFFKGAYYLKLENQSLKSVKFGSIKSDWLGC", "experiment": "Prodrug conversion assessed as MMP-2 (unknown origin)-mediated drug release by measuring half life by HPLC analysis", "assay_type": "ADME"}, "SAOS-2 [12]": {"test_system": "SAOS-2", "experiment": "Cytotoxicity against human SAOS-2 cells assessed as cell growth inhibition", "assay_type": "functional, cell-based"}, "Lymphoma cell line [13]": {"test_system": "Lymphoma cell line", "experiment": "Cytotoxicity against patient-derived human lymphoma cells assessed as cell growth inhibition incubated for 72 hrs by FMCA assay", "assay_type": "functional, cell-based"}, "Lymphoma cell line [14]": {"test_system": "Lymphoma cell line", "experiment": "Potency index, ratio of Melphalan IC50 to test compound IC50 for cytotoxicity against patient-derived human lymphoma cells assessed as cell growth inhibition incubated for 72 hrs by FMCA assay", "assay_type": "functional"}, "[15]": {"experiment": "Plasma protein binding in human assessed as unbound fraction", "assay_type": "ADME"}, "[16]": {"experiment": "Plasma protein binding in human by ultrafiltration method", "assay_type": "ADME", "details": "read-out: PPB (converted)"}, "[17]": {"experiment": "Plasma protein binding in human", "assay_type": "ADME"}},
  "note": "Non-standard residues stand in square brackets, D forms with d. Residues, ends and D or L forms follow the SMILES beside them. ξ: configuration not given here. *: point of attachment. ξPhe(4-N(CH2CH2Cl)2) = NC(Cc1ccc(N(CCCl)CCCl)cc1)C(=O)O; X1 = O=P(O)(O)C(CN*)P(=O)(O)O",
  "data": [
    {"smiles": "C=C1C(=O)O[C@@H]2C3O[C@]3(C)CC/C=C(\\C)CC[C@@H]12", "note": "(stereo partly drawn)", "values": [
      {"measurement": "IC50", "setting": "MCF7 [1]", "result": "> 20", "unit": "µM"}
    ]},
    {"smiles": "C/C1=C\\CC[C@@]2(C)O[C@H]2[C@H]2OC(=O)C(CNc3ccn(C4OC(CO)[C@H](O)[C@@H]4O)c(=O)n3)[C@@H]2CC1", "note": "(stereo partly drawn)", "values": [
      {"measurement": "IC50 at 48 h", "setting": "[2]", "result": 1.74, "unit": "µM"}
    ]},
    {"smiles": "C/C1=C\\CC[C@@]2(C)O[C@H]2[C@H]2OC(=O)C(CNC(Cc3ccc(N(CCCl)CCCl)cc3)C(=O)O)[C@@H]2CC1", "note": "(stereo partly drawn)", "values": [
      {"measurement": "tissue uptake at 2 h", "setting": "[3]", "result": 1.63, "unit": "%ID/g"},
      {"measurement": "Retention_time", "setting": "[4]", "result": 14.5, "unit": "min"}
    ]},
    {"smiles": "CC1(C)CC(NC(=O)C(N)Cc2ccc(N(CCCl)CCCl)cc2)CC(C)(C)N1[O]", "note": "(stereo not drawn)", "values": [
      {"measurement": "IC50", "setting": "K562", "result": 36.3, "unit": "µM"}
    ]},
    {"smiles": "NC1=NC2N=CC(CNc3ccc(C(=O)NCC(CCC(=O)NCC(=O)NCC(=O)NC(Cc4ccc(N(CCCl)CCCl)cc4)C(=O)O)C(=O)NCC(=O)NCC(=O)NC(Cc4ccccc4)C(=O)O)cc3)N=C2C(=O)N1", "note": "(stereo not drawn)", "values": [
      {"measurement": "IC50", "setting": "SK-OV-3", "result": 4.1, "unit": "µg/mL"}
    ]},
    {"smiles": "CN(C)c1ccc(/C=N\\Nc2ccc(CN[C@@H](Cc3ccc(N(CCCl)CCCl)cc3)C(=O)O)cc2)cc1", "values": [
      {"measurement": "tissue uptake at 4 h", "setting": "[5]", "result": 0.98, "unit": "%ID/g"}
    ]},
    {"smiles": "CCOC(=O)CNC(=O)[C@H](Cc1ccc(N(CCCl)CCCl)cc1)NC(=O)[C@@H](N)[C@@H](C)CC", "values": [
      {"measurement": "IC50", "setting": "HT-29", "result": 40, "unit": "µM"}
    ]},
    {"smiles": "C[N+](C)(C)CCCNC(=O)[C@@H](N)Cc1ccc(N(CCCl)CCCl)cc1", "values": [
      {"measurement": "IC50", "setting": "SAOS-2 [6]", "result": 37.5, "unit": "µM"},
      {"measurement": "IC50", "setting": "H-EMC-SS", "result": 14, "unit": "µM"}
    ]},
    {"smiles": "O=C(O)CN(CCN(CC(=O)O)CC(=O)O)CCN(CC(=O)O)CC(=O)N[C@@H](Cc1ccc(N(CCCl)CCCl)cc1)C(=O)O", "values": [
      {"measurement": "tissue uptake at 2 h", "setting": "[3]", "result": 1.03, "unit": "%ID/g"},
      {"measurement": "Retention_time", "setting": "[4]", "result": 10.72, "unit": "min"}
    ]},
    {"smiles": "COC(=O)C(Cc1ccc(N(CCCl)CCCl)cc1)NC(=O)c1ccc(-c2ccc(C(=N)NC(C)C)cc2)o1", "note": "(stereo not drawn)", "values": [
      {"measurement": "IC50", "setting": "MCF7 [7]", "result": 23, "unit": "µM"}
    ]},
    {"smiles": "O=C(O)C(Cc1ccc(N(CCCl)CCCl)cc1)NCC(=O)N1CCCC1C(=O)O", "note": "(stereo not drawn)", "values": [
      {"measurement": "inhibition at 15 µM", "setting": "MDA-MB-231 [8]", "result": 30, "unit": "%"},
      {"measurement": "inhibition at 15 µM", "setting": "MDA-MB-231 [9]", "result": 55, "unit": "%"}
    ]},
    {"smiles": "CC(C)C[C@H](NC(=O)CNC(=O)[C@H](CC(C)C)NC(=O)[C@@H]1CCCN1C(=O)C(N)Cc1ccc(N(CCCl)CCCl)cc1)C(=O)N[C@@H](C)C(=O)NCC(=O)NCC(P(=O)(O)O)P(=O)(O)O", "note": "(stereo partly drawn) (H-[ξPhe(4-N(CH2CH2Cl)2)]PLGLAG-X1)", "values": [
      {"measurement": "IC50", "setting": "U2OS", "result": 0.79, "unit": "µM"},
      {"measurement": "IC50", "setting": "MC3T3-E1", "result": 0.79, "unit": "µM"},
      {"measurement": "Drug excretion", "setting": "[10]", "result": 75, "unit": "%"},
      {"measurement": "t1/2", "setting": "[11]", "result": 1.25, "unit": "h"},
      {"measurement": "IC50", "setting": "SAOS-2 [12]", "result": 0.79, "unit": "µM"}
    ]},
    {"smiles": "Nc1ccn([C@@H]2O[C@H](CO)[C@@H](O)[C@@H]2O)c(=O)n1", "note": "[CYTARABINE]", "values": [
      {"measurement": "IC50", "setting": "MCF7 [1]", "result": "> 20", "unit": "µM"}
    ]},
    {"smiles": "CCOC(=O)[C@H](Cc1ccc(F)cc1)NC(=O)[C@@H](N)Cc1ccc(N(CCCl)CCCl)cc1", "note": "[MELPHALAN FLUFENAMIDE]", "values": [
      {"measurement": "IC50", "setting": "Lymphoma cell line [13]", "result": 0.011, "unit": "µM"},
      {"measurement": "Ratio IC50", "setting": "Lymphoma cell line [14]", "result": 49}
    ]},
    {"smiles": "N[C@@H](Cc1ccc(N(CCCl)CCCl)cc1)C(=O)O", "note": "[MELPHALAN]", "values": [
      {"measurement": "IC50", "setting": "U2OS", "result": 0.68, "unit": "µM"},
      {"measurement": "IC50", "setting": "K562", "result": 65.7, "unit": "µM"},
      {"measurement": "IC50", "setting": "MC3T3-E1", "result": 0.68, "unit": "µM"},
      {"measurement": "IC50", "setting": "MCF7 [7]", "result": 77, "unit": "µM"},
      {"measurement": "inhibition at 15 µM", "setting": "MDA-MB-231 [9]", "result": 40, "unit": "%"},
      {"measurement": "Cp(f)", "setting": "[15]", "result": 2500, "unit": "ng/mL"},
      {"measurement": "fraction unbound", "setting": "[16]", "result": 0.31},
      {"measurement": "IC50", "setting": "SAOS-2 [12]", "result": 0.68, "unit": "µM"},
      {"measurement": "PPB", "setting": "[17]", "result": 40, "unit": "µg/mL"},
      {"measurement": "IC50", "setting": "MCF7 [1]", "result": "> 20", "unit": "µM"}
    ]}
  ]
}
